The experiment has as its target T1, group II metabotropic glutamate receptor subtype 3 (mGluR3) (Homo sapiens, UniProt Q14832).
T1 construct: expressed in transfected cells; host or cells: Xenopus oocytes injected with cRNAs of mGluR3, GIRK1 and GIRK4
As to the kind of experiment: Electrophysiological measurement of response current in Xenopus oocytes injected with mGluR3, GIRK1 and GIRK4 cRNAs. The note with it: for mgluR3 (receptor activation by amino acid): amino acid alone, 1 mM, oocytes injected with mGluR3, GIRK1, GIRK4 cRNAs. It is filed as cell-based.

The structures appear in SMILES notation.

This is an account of results in patent US20080182811A1, “METABOTROPIC GLUTAMATE RECEPTOR ACTIVATOR” (Ajinomoto Co., Inc., priority 2005, published 2008).

T1 sequence (Q14832 23-879): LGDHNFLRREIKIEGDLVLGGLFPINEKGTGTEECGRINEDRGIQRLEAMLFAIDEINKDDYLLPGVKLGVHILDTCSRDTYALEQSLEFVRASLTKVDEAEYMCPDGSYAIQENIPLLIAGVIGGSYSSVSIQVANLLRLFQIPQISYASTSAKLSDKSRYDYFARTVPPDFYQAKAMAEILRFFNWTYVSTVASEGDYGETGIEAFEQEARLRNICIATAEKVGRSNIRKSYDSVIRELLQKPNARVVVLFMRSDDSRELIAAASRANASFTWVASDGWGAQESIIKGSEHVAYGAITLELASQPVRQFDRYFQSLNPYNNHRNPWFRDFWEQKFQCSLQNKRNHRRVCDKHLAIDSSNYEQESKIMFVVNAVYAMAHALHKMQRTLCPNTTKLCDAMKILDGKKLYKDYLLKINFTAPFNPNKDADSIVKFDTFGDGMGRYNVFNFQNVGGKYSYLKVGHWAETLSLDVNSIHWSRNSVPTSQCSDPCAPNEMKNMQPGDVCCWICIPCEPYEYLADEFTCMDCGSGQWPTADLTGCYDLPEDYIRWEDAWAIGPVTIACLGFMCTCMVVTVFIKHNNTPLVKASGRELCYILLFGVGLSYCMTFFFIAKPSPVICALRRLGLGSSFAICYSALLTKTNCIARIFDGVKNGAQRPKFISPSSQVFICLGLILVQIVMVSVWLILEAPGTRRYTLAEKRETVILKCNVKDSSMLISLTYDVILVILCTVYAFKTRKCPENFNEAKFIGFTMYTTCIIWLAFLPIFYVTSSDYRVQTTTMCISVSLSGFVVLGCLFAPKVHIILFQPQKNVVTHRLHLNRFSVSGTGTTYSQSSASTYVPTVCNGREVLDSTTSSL

As to `N[C@@H](Cc1ccc(O)cc1)C(=O)O` [Tyrosine, tyrosine], the “mgluR3 (receptor activation by amino acid)” value (“mgluR3” below) was “Activated”. Also, under “listed as tyrosine”, the “mgluR3” value is given as “effects of enhancing the activation”.
Regarding `CSCC[C@H](N)C(=O)O` [Methionine, methionine], the “mgluR3” value is “Activated”. Also, the “mgluR3” value (listed as methionine) is “effects of enhancing the activation”.
In the case of `NCCCC[C@H](N)C(=O)O` [Lysine, lysine], the “mgluR3” value was “Activated”. In addition, the “mgluR3” value (listed as lysine) is reported as “effects of enhancing the activation”.
Regarding `N[C@@H](Cc1ccccc1)C(=O)O` [Phenylalanine, phenylalanine], the “mgluR3” value was “Activated”. Moreover, the “mgluR3” value (listed as phenylalanine) was “effects of enhancing the activation”.
For the compound `N[C@@H](CO)C(=O)O` [Serine, serine], the “mgluR3” value was “Activated”. Besides, for the setting “listed as serine”, the “mgluR3” value was “effects of enhancing the activation”.
In the case of `NCCC[C@H](N)C(=O)O` [Ornithine, ornithine], the “mgluR3” value is on record as “Activated”. For the same compound, the “mgluR3” value (listed as ornithine) is on record as “effects of enhancing the activation”.
`NC(=O)CC[C@H](N)C(=O)O` [Glutamine, glutamine]: the “mgluR3” value is given as “Activated”. In addition, for the setting “listed as glutamine”, the “mgluR3” value was “effects of enhancing the activation”.
Consider `CC(C)C[C@H](N)C(=O)O` [Leucine, leucine], for which the “mgluR3” value was “Activated”. In addition, the “mgluR3” value (listed as leucine) was “effects of enhancing the activation”. Besides, the “effect of amino acid (response current value) with cation vs amino acid alone” value (coexistence with calcium ion (10 mM), glutamic acid 3 μM, aspartic acid 300 μM, leucine 1 mM, cysteine 1 mM, FIG. 7) is reported as “enhanced”. Further, the “effect of amino acid (response current value) with nucleic acid and cation vs amino acid alone” value (coexistence with inosinic acid (1 mM) and calcium ion (10 mM), glutamic acid 3 μM, aspartic acid 300 μM, leucine 1 mM, cysteine 1 mM, FIG. 8) was “enhanced”. For the same compound, under “coexistence with inosinic acid (1 mM), glutamic acid 3 μM, aspartic acid 300 μM, valine 1 mM, leucine 1 mM, FIG. 6”, the “effect of amino acid (response current value) with nucleic acid vs amino acid alone” value is “enhanced”.
`NCCS(=O)(=O)O` [Taurine, taurine]: the “mgluR3” value is listed as “Activated”. For the same compound, the “mgluR3” value (listed as taurine) was “effects of enhancing the activation”.
Consider `NCC(=O)O` [Glycine, glycine], for which the “mgluR3” value is on record as “Activated”. The “mgluR3” value (listed as glycine) was “effects of enhancing the activation”.
With `O=C(O)[C@@H]1C[C@@H](O)CN1` [Hydroxyproline, hydroxyproline], the “mgluR3” value is reported as “Activated”. For the same compound, the “mgluR3” value (listed as hydroxyproline) is “effects of enhancing the activation”.
On to `NC(=O)C[C@H](N)C(=O)O` [Asparagine, asparagine], for which the “mgluR3” value is reported as “Activated”. Also, the “mgluR3” value (listed as asparagine) was “effects of enhancing the activation”.
For the compound `C[C@H](N)C(=O)O` [Alanine, alanine], the “mgluR3” value is recorded as “Activated”. For the same compound, the “mgluR3” value (listed as alanine) is on record as “effects of enhancing the activation”.
With `N=C(N)NCCC[C@H](N)C(=O)O` [Arginine, arginine], the “mgluR3” value is recorded as “Activated”. In addition, the “mgluR3” value (listed as arginine) is “effects of enhancing the activation”.
Regarding `C[C@@H](O)[C@H](N)C(=O)O` [Threonine, threonine], the “mgluR3” value is given as “Activated”. Besides, the “mgluR3” value (listed as threonine) is recorded as “effects of enhancing the activation”.
For `O=C(O)[C@@H]1CCCN1` [Proline, proline], the “mgluR3” value is listed as “Activated”. For the setting “listed as proline”, the “mgluR3” value is recorded as “effects of enhancing the activation”.
As for `N[C@@H](Cc1c[nH]c2ccccc12)C(=O)O` [Tryptophan, tryptophan], the “mgluR3” value was “Activated”. Also, the “mgluR3” value (listed as tryptophan) is given as “effects of enhancing the activation”.
As for `N[C@@H](Cc1c[nH]cn1)C(=O)O` [Histidine, histidine], the “mgluR3” value was “Activated”. Also, where the note is “listed as histidine”, the “mgluR3” value is recorded as “effects of enhancing the activation”.
Consider `CC[C@H](C)[C@H](N)C(=O)O` [Isoleucine, isoleucine], for which the “mgluR3” value is “Activated”. Moreover, the “mgluR3” value (listed as isoleucine) is given as “effects of enhancing the activation”.
